Reference: paper PMC4286351 (Journal of undergraduate chemistry research, 2013)

What was measured:
human P450 1A1 = biological target: T1, human P450 1A1 (Homo sapiens, UniProt P04798); experiment: biochemical
T1 sequence (P04798 1-512): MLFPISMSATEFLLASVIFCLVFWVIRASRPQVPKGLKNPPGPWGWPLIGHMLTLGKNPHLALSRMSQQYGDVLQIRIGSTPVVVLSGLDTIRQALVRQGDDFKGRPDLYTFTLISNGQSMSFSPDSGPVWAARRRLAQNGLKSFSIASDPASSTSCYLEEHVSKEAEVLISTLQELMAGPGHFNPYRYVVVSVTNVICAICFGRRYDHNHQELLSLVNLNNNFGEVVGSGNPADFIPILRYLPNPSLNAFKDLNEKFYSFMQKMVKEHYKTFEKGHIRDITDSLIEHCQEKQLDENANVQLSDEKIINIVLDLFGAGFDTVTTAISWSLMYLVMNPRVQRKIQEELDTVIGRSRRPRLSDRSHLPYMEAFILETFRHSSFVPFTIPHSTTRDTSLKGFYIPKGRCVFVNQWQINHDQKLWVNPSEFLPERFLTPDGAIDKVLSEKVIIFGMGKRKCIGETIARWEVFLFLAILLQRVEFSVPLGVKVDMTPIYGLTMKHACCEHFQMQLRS

rat P450 2B1 = biological target: T2, rat P450 2B1 (Rattus norvegicus, UniProt P00176); experiment: biochemical; format: biochemical; settings: for inhibition potency for P450 2B1 (in words): rat P450 2B1, PROD activity
T2 sequence (P00176 1-491): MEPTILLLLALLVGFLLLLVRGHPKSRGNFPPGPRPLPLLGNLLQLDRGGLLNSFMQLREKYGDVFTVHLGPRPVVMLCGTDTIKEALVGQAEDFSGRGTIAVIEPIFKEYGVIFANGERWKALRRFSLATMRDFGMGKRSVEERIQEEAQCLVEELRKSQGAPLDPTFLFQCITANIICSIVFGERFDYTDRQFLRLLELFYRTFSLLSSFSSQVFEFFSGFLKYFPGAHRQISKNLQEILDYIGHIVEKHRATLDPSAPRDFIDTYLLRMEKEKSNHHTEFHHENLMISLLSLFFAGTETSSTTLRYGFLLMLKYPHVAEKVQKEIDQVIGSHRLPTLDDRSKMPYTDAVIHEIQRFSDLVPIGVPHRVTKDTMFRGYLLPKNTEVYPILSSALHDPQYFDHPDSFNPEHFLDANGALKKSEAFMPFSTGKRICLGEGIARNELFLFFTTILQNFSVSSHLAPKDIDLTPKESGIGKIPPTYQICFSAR

human P450 1A2 = biological target: T3, human P450 1A2 (Homo sapiens, UniProt P05177); experiment: 7-methoxyresorufin O-demethylation; format: biochemical
T3 sequence (P05177 1-516): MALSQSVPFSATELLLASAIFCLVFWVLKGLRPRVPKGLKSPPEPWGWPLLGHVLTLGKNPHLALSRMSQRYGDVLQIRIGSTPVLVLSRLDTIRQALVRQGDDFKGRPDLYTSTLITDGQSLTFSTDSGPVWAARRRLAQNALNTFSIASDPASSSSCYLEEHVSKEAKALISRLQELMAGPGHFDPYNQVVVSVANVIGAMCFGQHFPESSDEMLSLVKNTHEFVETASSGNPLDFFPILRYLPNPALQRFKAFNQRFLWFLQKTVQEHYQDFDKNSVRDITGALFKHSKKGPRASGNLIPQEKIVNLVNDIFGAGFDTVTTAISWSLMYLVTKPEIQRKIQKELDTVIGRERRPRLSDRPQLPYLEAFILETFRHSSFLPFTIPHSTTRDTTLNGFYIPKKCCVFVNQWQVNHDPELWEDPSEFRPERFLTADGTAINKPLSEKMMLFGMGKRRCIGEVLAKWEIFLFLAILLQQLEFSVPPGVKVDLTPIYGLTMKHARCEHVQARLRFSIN

| SMILES | IC50 (human P450 1A1) | IC50 (rat P450 2B1) | inhibition potency for P450 2B1 (in words) (rat P450 2B1) | IC50 (human P450 1A2) |
| --- | --- | --- | --- | --- |
| COc1cccc2[nH]c3ccccc3c12 [I, 4-methoxy-9H-carbazole] | 21.5 µM | 1.83 µM | good inhibition potency | – |
| C#CCOc1cccc2[nH]c3ccccc3c12 [IV, 4-(prop-2-yn-1-yloxy)-9H-carbazole] | 6.64 µM | 1.78 µM | good inhibition potency | – |
| COc1ccc2c(c1)[nH]c1ccccc12 [V, 2-methoxy-9H-carbazole] | 35 µM | 13.3 µM | – | – |
| CCCOc1ccc2c(c1)[nH]c1ccccc12 [VII, 2-propoxy-9H-carbazole] | 26.4 µM | 10.6 µM | – | – |
| CCOc1ccc2c(c1)[nH]c1ccccc12 [VI, 2-ethoxy-9H-carbazole] | 15.6 µM | 8.43 µM | – | – |
| CCCOc1cccc2[nH]c3ccccc3c12 [III, 4-propoxy-9H-carbazole] | 8.73 µM | 0.659 µM | good inhibition potency | – |
| Oc1ccc2c(c1)[nH]c1ccccc12 [2-hydroxycarbazole, 2-Hydroxycarbazole, reference compound] | 70.5 µM | 41.6 µM | – | 59.7 µM |
| CCOc1cccc2[nH]c3ccccc3c12 [II, 4-ethoxy-9H-carbazole] | 10.3 µM | 1.14 µM | good inhibition potency | – |
| C#CCOc1ccc2c(c1)[nH]c1ccccc12 [VIII, 2-(prop-2-yn-1-yloxy)-9H-carbazole] | 8.65 µM | 5.26 µM | – | – |
| Oc1cccc2[nH]c3ccccc3c12 [4-hydroxycarbazole, 4-Hydroxycarbazole, reference compound] | 36.8 µM | > 100 µM | – | 7.33 µM |
